Values of other authors, collected in patent US20030143266A1, “Cationic amphiphile micellar complexes” (GENZYME CORPORATION, priority 1999, published 2003).

Test system: airway epithelial cells
Conditions: shown by elevation of cGMP levels, CFTR-dependent chloride transport, ciliary beat frequency

CNP-22: C-type natriuretic peptide containing 22 amino acid; binds and activates guanylate cyclase-B receptor
binding to airway epithelial cells in vivo: Specific binding
